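Exposure lasted 48 hours, with cells grown in 96-well plates and compounds tested at five concentrations. Definition used: TGI = concentration required for complete inhibition of growth.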
Legend:
Experiment in all cases: growth of human tumour cells (NCI), 48 h
HCC-2998 colon = test system: HCC-2998 colon
DU-145 prostate = test system: DU-145 prostate
786-0 renal = test system: 786-0 renal
MOLT-4 leukemia = test system: MOLT-4 leukemia
NCI/ADR-RES ovarian = test system: NCI/ADR-RES ovarian
SF-268 CNS = test system: SF-268 CNS
SK-MEL-5 melanoma = test system: SK-MEL-5 melanoma
NCI-H522 lung = test system: NCI-H522 lung
HOP-62 NSCLC = test system: HOP-62 NSCLC
MDA-MB-435 = test system: MDA-MB-435
SK-MEL-28 melanoma = test system: SK-MEL-28 melanoma
A549 NSCLC = test system: A549 NSCLC
SW-620 colon = test system: SW-620 colon
SNB-75 CNS = test system: SNB-75 CNS
TK-10 renal = test system: TK-10 renal
SNB-19 CNS = test system: SNB-19 CNS
MDA-N = test system: MDA-N
COLO 205 colon = test system: COLO 205 colon
CAKI-1 renal = test system: CAKI-1 renal
SK-OV-3 ovarian = test system: SK-OV-3 ovarian
SF-539 CNS = test system: SF-539 CNS
SK-MEL-2 melanoma = test system: SK-MEL-2 melanoma
OVCAR-8 ovarian = test system: OVCAR-8 ovarian
HL-60(TB) leukemia = test system: HL-60(TB) leukemia
NCI-H460 lung = test system: NCI-H460 lung
SN12C renal = test system: SN12C renal
UACC-62 melanoma = test system: UACC-62 melanoma
HCT-116 colon = test system: HCT-116 colon
NCI-H23 lung = test system: NCI-H23 lung
SF-295 CNS = test system: SF-295 CNS
LOX IMVI melanoma = test system: LOX IMVI melanoma
M14 melanoma = test system: M14 melanoma
CCRF-CEM leukemia = test system: CCRF-CEM leukemia
HCT-15 colon = test system: HCT-15 colon
NCI-H226 lung = test system: NCI-H226 lung
HOP-92 NSCLC = test system: HOP-92 NSCLC
HT29 colon = test system: HT29 colon
UACC-257 melanoma = test system: UACC-257 melanoma
MCF7 breast = test system: MCF7 breast
K-562 leukemia = test system: K-562 leukemia
MDA-MB-231 breast = test system: MDA-MB-231 breast
OVCAR-4 ovarian = test system: OVCAR-4 ovarian
HS 578T breast = test system: HS 578T breast
U251 CNS = test system: U251 CNS
A498 renal = test system: A498 renal
OVCAR-3 ovarian = test system: OVCAR-3 ovarian
IGROV1 ovarian = test system: IGROV1 ovarian
ACHN renal = test system: ACHN renal
SR leukemia = test system: SR leukemia
PC-3 prostate = test system: PC-3 prostate
UO-31 renal = test system: UO-31 renal
EKVX NSCLC = test system: EKVX NSCLC
T-47D breast = test system: T-47D breast
RXF 393 renal = test system: RXF 393 renal
KM12 colon = test system: KM12 colon
OVCAR-5 ovarian = test system: OVCAR-5 ovarian
MALME-3M melanoma = test system: MALME-3M melanoma
RPMI-8226 leukemia = test system: RPMI-8226 leukemia
BT-549 breast = test system: BT-549 breast

Structure (SMILES): Cc1ccc(S(=O)(=O)N/N=C2\CC3C4CCC3C2C4)cc1 (configuration not stated)
- TGI (HCC-2998 colon): > 100 µM
- TGI (DU-145 prostate): > 100 µM
- TGI (786-0 renal): > 100 µM
- TGI (MOLT-4 leukemia): > 100 µM
- TGI (NCI/ADR-RES ovarian): > 100 µM
- TGI (SF-268 CNS): > 100 µM
- TGI (SK-MEL-5 melanoma): > 100 µM
- TGI (NCI-H522 lung): > 100 µM
- TGI (HOP-62 NSCLC): > 100 µM
- TGI (MDA-MB-435): > 100 µM
- TGI (SK-MEL-28 melanoma): > 100 µM
- TGI (A549 NSCLC): > 100 µM
- TGI (SW-620 colon): > 100 µM
- TGI (SNB-75 CNS): > 100 µM
- TGI (TK-10 renal): > 100 µM
- TGI (SNB-19 CNS): > 100 µM
- TGI (MDA-N): > 100 µM
- TGI (COLO 205 colon): > 100 µM
- TGI (CAKI-1 renal): > 100 µM
- TGI (SK-OV-3 ovarian): > 100 µM
- TGI (SF-539 CNS): > 100 µM
- TGI (SK-MEL-2 melanoma): > 100 µM
- TGI (OVCAR-8 ovarian): > 100 µM
- TGI (HL-60(TB) leukemia): > 100 µM
- TGI (NCI-H460 lung): > 100 µM
- TGI (SN12C renal): > 100 µM
- TGI (UACC-62 melanoma): > 100 µM
- TGI (HCT-116 colon): > 100 µM
- TGI (NCI-H23 lung): > 100 µM
- TGI (SF-295 CNS): > 100 µM
- TGI (LOX IMVI melanoma): > 100 µM
- TGI (M14 melanoma): > 100 µM
- TGI (CCRF-CEM leukemia): > 100 µM
- TGI (HCT-15 colon): > 100 µM
- TGI (NCI-H226 lung): > 100 µM
- TGI (HOP-92 NSCLC): > 100 µM
- TGI (HT29 colon): > 100 µM
- TGI (UACC-257 melanoma): > 100 µM
- TGI (MCF7 breast): > 100 µM
- TGI (K-562 leukemia): > 100 µM
- TGI (MDA-MB-231 breast): > 100 µM
- TGI (OVCAR-4 ovarian): > 100 µM
- TGI (HS 578T breast): > 100 µM
- TGI (U251 CNS): > 100 µM
- TGI (A498 renal): > 100 µM
- TGI (OVCAR-3 ovarian): > 100 µM
- TGI (IGROV1 ovarian): > 100 µM
- TGI (ACHN renal): > 100 µM
- TGI (SR leukemia): > 100 µM
- TGI (PC-3 prostate): > 100 µM
- TGI (UO-31 renal): > 100 µM
- TGI (EKVX NSCLC): > 100 µM
- TGI (T-47D breast): > 100 µM
- TGI (RXF 393 renal): > 100 µM
- TGI (KM12 colon): > 100 µM
- TGI (OVCAR-5 ovarian): > 100 µM
- TGI (MALME-3M melanoma): > 100 µM

Structure (SMILES): CC(=O)OC[C@]12CCC3[C@@]4(C)CCCC(C)(C)C4CC[C@@]3(C)C1CC(C1=CC(=O)OC1O)O2 (some centres not stated)
- TGI (HCC-2998 colon): 2.83 µM
- TGI (786-0 renal): 1.83 µM
- TGI (MOLT-4 leukemia): 0.633 µM
- TGI (SF-268 CNS): 4.88 µM
- TGI (SK-MEL-5 melanoma): 2.85 µM
- TGI (HOP-62 NSCLC): 3.9 µM
- TGI (SK-MEL-28 melanoma): 2.19 µM
- TGI (A549 NSCLC): 5.05 µM
- TGI (SW-620 colon): 1.85 µM
- TGI (SNB-75 CNS): 3.91 µM
- TGI (TK-10 renal): 3.2 µM
- TGI (RPMI-8226 leukemia): 0.761 µM
- TGI (MDA-N): 2.42 µM
- TGI (COLO 205 colon): 5.67 µM
- TGI (CAKI-1 renal): 3.11 µM
- TGI (SK-OV-3 ovarian): 4.04 µM
- TGI (OVCAR-8 ovarian): 3.52 µM
- TGI (HL-60(TB) leukemia): 2.66 µM
- TGI (UACC-62 melanoma): 3.65 µM
- TGI (NCI-H23 lung): 3.8 µM
- TGI (M14 melanoma): 3.07 µM
- TGI (CCRF-CEM leukemia): 0.982 µM
- TGI (HCT-15 colon): 1.98 µM
- TGI (MCF7 breast): 2.97 µM
- TGI (K-562 leukemia): 9.56 µM
- TGI (MDA-MB-231 breast): 3.12 µM
- TGI (IGROV1 ovarian): 2.95 µM
- TGI (SR leukemia): 0.868 µM
- TGI (PC-3 prostate): 2.68 µM
- TGI (EKVX NSCLC): 6.51 µM
- TGI (T-47D breast): 3.79 µM
- TGI (RXF 393 renal): 1.55 µM
- TGI (KM12 colon): 3.62 µM

Structure (SMILES): O=c1[nH]c(=S)c2[nH]c(=O)n(-c3ccccc3)c2[nH]1
- TGI (HCC-2998 colon): > 100 µM
- TGI (DU-145 prostate): > 100 µM
- TGI (786-0 renal): > 100 µM
- TGI (MOLT-4 leukemia): > 100 µM
- TGI (NCI/ADR-RES ovarian): > 100 µM
- TGI (SF-268 CNS): > 100 µM
- TGI (SK-MEL-5 melanoma): > 100 µM
- TGI (NCI-H522 lung): > 100 µM
- TGI (HOP-62 NSCLC): > 100 µM
- TGI (MDA-MB-435): > 100 µM
- TGI (SK-MEL-28 melanoma): > 100 µM
- TGI (A549 NSCLC): > 100 µM
- TGI (SW-620 colon): > 100 µM
- TGI (TK-10 renal): > 100 µM
- TGI (SNB-19 CNS): > 100 µM
- TGI (MDA-N): > 100 µM
- TGI (CAKI-1 renal): > 100 µM
- TGI (SK-MEL-2 melanoma): > 100 µM
- TGI (OVCAR-8 ovarian): > 100 µM
- TGI (NCI-H460 lung): > 100 µM
- TGI (SN12C renal): > 100 µM
- TGI (UACC-62 melanoma): > 100 µM
- TGI (HCT-116 colon): > 100 µM
- TGI (NCI-H23 lung): > 100 µM
- TGI (BT-549 breast): > 100 µM
- TGI (SF-295 CNS): > 100 µM
- TGI (LOX IMVI melanoma): > 100 µM
- TGI (M14 melanoma): > 100 µM
- TGI (HCT-15 colon): > 100 µM
- TGI (NCI-H226 lung): > 100 µM
- TGI (HOP-92 NSCLC): > 100 µM
- TGI (HT29 colon): > 100 µM
- TGI (UACC-257 melanoma): > 100 µM
- TGI (K-562 leukemia): > 100 µM
- TGI (MDA-MB-231 breast): > 100 µM
- TGI (OVCAR-4 ovarian): > 100 µM
- TGI (HS 578T breast): > 100 µM
- TGI (U251 CNS): > 100 µM
- TGI (A498 renal): > 100 µM
- TGI (OVCAR-3 ovarian): > 100 µM
- TGI (IGROV1 ovarian): > 100 µM
- TGI (ACHN renal): > 100 µM
- TGI (SR leukemia): > 100 µM
- TGI (PC-3 prostate): > 100 µM
- TGI (UO-31 renal): > 100 µM
- TGI (EKVX NSCLC): > 100 µM
- TGI (RXF 393 renal): > 100 µM
- TGI (KM12 colon): > 100 µM
- TGI (OVCAR-5 ovarian): > 100 µM
- TGI (MALME-3M melanoma): > 100 µM

Structure (SMILES): COc1cccc(-c2cc(=O)c3cc(N4CCCC4)ccc3[nH]2)c1
- TGI (HCC-2998 colon): 0.013 µM
- TGI (DU-145 prostate): < 0.001 µM
- TGI (786-0 renal): > 10 µM
- TGI (MOLT-4 leukemia): > 10 µM
- TGI (NCI/ADR-RES ovarian): < 0.001 µM
- TGI (SF-268 CNS): > 10 µM
- TGI (SK-MEL-5 melanoma): 0.00747 µM
- TGI (NCI-H522 lung): < 0.001 µM
- TGI (HOP-62 NSCLC): > 10 µM
- TGI (MDA-MB-435): < 0.001 µM
- TGI (SK-MEL-28 melanoma): > 10 µM
- TGI (A549 NSCLC): > 10 µM
- TGI (SW-620 colon): > 10 µM
- TGI (SNB-75 CNS): > 10 µM
- TGI (TK-10 renal): > 10 µM
- TGI (RPMI-8226 leukemia): 2.44 µM
- TGI (SNB-19 CNS): < 0.001 µM
- TGI (MDA-N): < 0.001 µM
- TGI (COLO 205 colon): < 0.001 µM
- TGI (CAKI-1 renal): > 10 µM
- TGI (SF-539 CNS): < 0.001 µM
- TGI (OVCAR-8 ovarian): 0.00128 µM
- TGI (HL-60(TB) leukemia): < 0.001 µM
- TGI (NCI-H460 lung): 1.42 µM
- TGI (SN12C renal): > 10 µM
- TGI (UACC-62 melanoma): > 10 µM
- TGI (HCT-116 colon): 0.0348 µM
- TGI (NCI-H23 lung): 0.0962 µM
- TGI (SF-295 CNS): < 0.001 µM
- TGI (LOX IMVI melanoma): 0.00131 µM
- TGI (M14 melanoma): > 10 µM
- TGI (CCRF-CEM leukemia): > 10 µM
- TGI (HCT-15 colon): 0.00647 µM
- TGI (NCI-H226 lung): 0.00347 µM
- TGI (HOP-92 NSCLC): > 10 µM
- TGI (UACC-257 melanoma): > 10 µM
- TGI (MCF7 breast): > 4.67 µM
- TGI (K-562 leukemia): > 8.09 µM
- TGI (MDA-MB-231 breast): 0.598 µM
- TGI (OVCAR-4 ovarian): > 10 µM
- TGI (HS 578T breast): > 10 µM
- TGI (OVCAR-3 ovarian): < 0.001 µM
- TGI (IGROV1 ovarian): > 10 µM
- TGI (ACHN renal): > 10 µM
- TGI (SR leukemia): < 0.001 µM
- TGI (PC-3 prostate): > 10 µM
- TGI (UO-31 renal): > 10 µM
- TGI (EKVX NSCLC): > 10 µM
- TGI (T-47D breast): > 10 µM
- TGI (KM12 colon): 0.0111 µM
- TGI (OVCAR-5 ovarian): > 10 µM
- TGI (MALME-3M melanoma): 9.53 µM
